Legend:
[1] = Pharmacokinetic Assay, single oral dose 5 mg/kg (Table 12); format: in vivo; conditions: mouse, plasma concentration, C57 female mice, single oral dose 5 mg/kg
In short: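 Adult female C57 mice (n=3) got one intragastric dose of 5 mg/kg in 15% DMSO, 10% Kolliphor HS 15, 75% saline. Retro-orbital blood was taken at 30 min, 2 h and 4 h into K2-EDTA. Plasma levels were measured by LC-MS/MS.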

PD-1/PD-L1 = PD-1/PD-L1 (Homo sapiens (Human), UniProt Q9NZQ7); test: PD-1/PD-L1 Binding Assay (Alphascreen); conditions: numeric values
In short: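 PD-1/PD-L1 binding detected by anti-6×His acceptor and streptavidin donor beads after 120 min in the dark at 25 °C. Beforehand, the two proteins were incubated 15 min at 25 °C with inhibitor at 0.015–300 nM (1% DMSO). IC50 comes from a log concentration–response curve.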

[2] = Pharmacokinetic Assay, single oral dose 100 mg/kg (Table 11); format: in vivo; conditions: mouse, C57 female mice, oral (intragastric), plasma
[3] = tested on: PD-1/PD-L1 interaction (Jurkat T cells expressing hPD-1 and PD-L1 aAPC/CHO-K1 cells expressing hPD-L1); test: NFAT Assay (PD-1/PD-L1 Blockade Bioassay, luciferase reporter); format: cell-based; conditions: Homo sapiens; PD-1 effector Jurkat cells + PD-L1 aAPC/CHO-K1 cells, Bio-Glo luciferase
Procedure: PD-1/PD-L1 Blockade Bioassay contains two cells: PD-1 Effector Cells, which are the Jurkat T cells expressing hPD-1 and luciferase reporter genes; PD-L1 aAPC/CHO-K1 Cells, which are the CHO-K1 cells expressing hPD-L1 and activate TCR's cell surface proteins. The antibody or small molecule compound is incubated with these two cells for a period of time, and the amount of the product is detected using Bio-Glo Luciferase reagent and chemiluminescence method to reflect the influence of antibody or small molecule compound on PD-1/PD-L1 interaction.
Cell medium: 36 mL Ham's F-12; 4 mL FBS
1) Resuscitate PD-L1 aAPC/CHO-K1 Cells on the first day and the cells were suspended and counted with cell recovery medium. The cells were diluted to 2.65*10^5/ml with cell medium. Seed cells at density of 6000 cells/well of 384-wells plates, incubator for 16-24 h;
2) Dilute the compound to 5 mM with DMSO. The 5 mM solution was used as the first concentration, and a 3-fold gradient dilution was performed, with a total of 9 concentration gradients, and the 10th concentration was used as the DMSO control;
3) Positive control antibody Atezolizumab was diluted to 4 μg/ml with assay buffer. 4 μg/ml was used as the first concentration, and a 2.5-fold gradient dilution was performed, with a total of 9 concentration gradients, and the 10th concentration was used as the assay buffer control;
4) Aspirate the medium from the 384-well plate. Add 10 μL/well of compound to the 384-well plate and incubate for 2 hours;
5) Resuscitate PD-1 effector cells and the cells were suspended and counted with cell recovery medium. The cells were diluted to […] with cell medium. Seed cells at density of 8000 cells/well to 384-wells plates of step 4, incubator for 17 h;
6) Add 20 μL/well of Bio-Glo luciferase reagent to the 384 reaction plate of step 5, and incubate at 25° C. for 5-30 minutes.
7) Read the RLU (relative luminescence unit) value using the Envision multi-plate reader. The experimental data were plotted using compound concentration as X value and RLU as Y value.

PD-1/PD-L1, sequence (Q9NZQ7 19-238): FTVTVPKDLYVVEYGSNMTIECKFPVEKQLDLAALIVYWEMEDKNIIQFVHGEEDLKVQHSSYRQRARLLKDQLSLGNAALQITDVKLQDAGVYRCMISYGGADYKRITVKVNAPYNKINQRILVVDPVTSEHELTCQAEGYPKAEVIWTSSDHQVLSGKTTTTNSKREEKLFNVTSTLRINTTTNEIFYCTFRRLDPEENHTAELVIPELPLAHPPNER

| concentration at 0.5 h [1] [ng/mL] | concentration at 2 h [1] [ng/mL] | concentration at 4 h [1] [ng/mL] | IC50 (PD-1/PD-L1) [nM] | AUC [2] [ng·h/mL] | Cmax [2] [ng/mL] | Tmax [2] [h] | half-life [2] [h] | Compound | EC50 [3] [nM] |
| --- | --- | --- | --- | --- | --- | --- | --- | --- | --- |
| 43.9 | 55.7 | 61.2 | 0.4 | 25700 | 2600 | 4 | 5.07 | Cc1c(-c2nc3cc(CN4CCCC4)c(OC(F)F)cc3o2)cccc1-c1cccc(-c2nc3cc(CN4CCC[C@H]4C(=O)O)c(OC(F)F)cc3o2)c1C [Example 5, ((6-(difluoromethoxy)-2-(3′-(6-(difluoromethoxy)-5-(pyrrolidin-1-ylmethyl)benzo[d]oxazol-2-yl)-2,2′-dimethyl-[1,1′-biphenyl]-3-yl)benzo[d]oxazol-5-yl)methyl)-L-proline] | 317 |
| 48.9 | 185 | 135 | 0.13 | 96400 | 5590 | 4 | 23.4 | Cc1c(-c2nc3cc(CN4CCC[C@H]4C(=O)O)c(OC(F)F)cc3o2)cccc1-c1cccc(-c2nc3cc(CN4CC(C)(C)C4)cc(C#N)c3o2)c1C [Example 103, ((2-(3′-(7-cyano-5-((3,3-dimethylazetidin-1-yl)methyl)benzo[d]oxazol-2-yl)-2,2′-dimethyl-[1,1′-biphenyl]-3-yl)-6-(difluoromethoxy)benzo[d]oxazol-5-yl)methyl)-L-proline] | 254 |
| 20.6 | 88.5 | 44.3 |  |  |  |  |  | Cc1c(-c2nc3cc(CN4CCC[C@H]4C(=O)O)ccc3o2)cccc1-c1cccc(-c2nc3cc(CN4CCCC4)c(OC(F)F)cc3o2)c1C [Example 317, ((2-(3′-(6-(difluoromethoxy)-5-(pyrrolidin-1-ylmethyl)benzo[d]oxazol-2-yl)-2,2′-dimethyl-[1,1′-biphenyl]-3-yl)benzo[d]oxazol-5-yl)methyl)-L-proline] | 4700 |
|  |  |  |  |  |  |  |  | Cc1c(-c2nc3cc(CN4CCC[C@H]4C(=O)O)ccc3o2)cccc1-c1cccc(-c2nc3cc(CN4CC(C)(C)C4)cc(C#N)c3o2)c1C [Example 318, ((2-(3′-(7-cyano-5-((3,3-dimethylazetidin-1-yl)methyl)benzo[d]oxazol-2-yl)-2,2′-dimethyl-[1,1′-biphenyl]-3-yl)benzo[d]oxazol-5-yl)methyl)-L-proline] | 3220 |

Source: US12187713B2, “Immunomodulators, compositions and methods thereof” (Betta Pharmaceuticals Co., Ltd, priority 2019, dated 2025)
